The values that follow come from patent US20110212142A1, “CURCUMINOIDS AND ITS METABOLITES FOR THE APPLICATION IN OCULAR DISEASES” (LAILA PHARMACEUTICALS PVT.LTD., priority 2008, published 2011).

The nature of the series: Particle size distribution study (Malvern particle size analyzer, laser diffraction). The series is classed as physicochemical. Here is the method: The study was conducted using Malvern particle size analyzer. The map of scattering intensity versus angle is the primary source of information used to calculate the particle size. The scattering of particles is accurately predicted by the Mie scattering model allowing accurate sizing across the widest possible dynamic range. During the laser diffraction measurement, particles are passed through a focused laser beam. These particles scatter light at an angle that is inversely proportional to their size. The angular intensity of the scattered light is then measured by a series of photosensitive detectors. The advantage of this study is that there is no sample preparation involved.
This is a clear indication that the process of nanoemulsification followed has effectively transformed the large sized particles to nanosized coated curcuminoid particles. Additional peaks can be observed which is contributed by the high molecular weight excipients used to prepare the formulation.

Read-outs that look alike come from different tables or passages of the source.

With `COc1cc(/C=C/C(=O)CC(=O)/C=C/c2ccc(O)c(OC)c2)ccc1O` [unformulated curcumin 98%, curcumin], the particle size came to 373 nm. This molecule returned a particle size (listed as unformulated curcumin) of 374 nm.
